System: ICR mice
Test: Caffeine sleep deprivation model with pentobarbital-induced sleep
Type: in vivo, mouse
Conditions: caffeine 10 mg/kg i.p., pentobarbital 42 mg/kg after 30 minutes

`Cn1c(=O)c2c(ncn2C)n(C)c1=O` [caffeine] was tested, and the “sleep duration decrease compared to negative control group” value was 1,000 seconds and the “sleep onset time increase compared to negative control group” value was “about 50 seconds”.
